Data: patent US7211269B2, “Cosmetic or dermatological use of peptides for promoting adhesion between skin cells” (Societe d' Extraction de Principes Actifs S.A., priority 2001, dated 2007)
Where no end group is shown, it is not given here.

Assays:
[1] = Stability of the peptide by HPLC at various temperatures; type: physicochemical; conditions: 10^-4 M
Procedure: (§1) The Peptide (Gly-Pro-Gln)2-NH2 (SEQ ID NO: 2) was analyzed with a concentration of 10^-4 M by HPLC on a column of the C18 type, and with a linear gradient water/TFA 0.1%—acetonitril/TFA 0.1%.

[2] = Stability of the peptide in culture medium removed from human fibroblasts and keratinocytes (released degradation enzymes), HPLC; type: in vitro ADME; conditions: medium from human fibroblasts and keratinocytes cultivated 24 hours at 37° C.; after 24 hours with peptide
Procedure: as §1
(§2) Human fibroblasts and keratinocytes were cultivated during 24 hours at 37° C. and 5% of CO2. For this period, the cells will release many degradation enzymes in the culture medium. Thereafter, the culture medium is removed to be put in the presence of the peptide.

[3] = system: fibroblasts and keratinocytes in culture; assay: Peptide applied to fibroblasts and keratinocytes in culture, HPLC analysis of the culture medium; type: cell-based, human
Procedure: as §2
A test is carried out by applying the peptide to the fibroblasts and to the keratinocytes in culture.
This assumption is then consolidated by the tests of effectiveness exposed in the […]

keratinocytes = assay: Adhesion of keratinocytes to pre-treated 96 wells micro-plates (MTT, OD reading); type: cell-based
Procedure: The study is carried out in 96 wells micro-plates on keratinocytes cultured in an incubator at 37° C. and 5% of CO2. The wells of these plates are pre-treated, for 12 hours, in different ways; four conditions have been realized: • Condition A: negative control, not containing peptide; • Condition B: incubated with various peptides, made up from 3 to 25 amino acids, with a concentration of 35 ppm; • Condition C: incubated with collagen of the type I with a concentration of 60 ppm; • Condition D: incubated with the peptide of sequence (Gly-Pro-Gln)2-NH2 (SEQ ID NO: 2) to a concentration of 5 ppm.
After 3 hours of contact with the keratinocytes, the wells are completely filled with medium, hermetically closed, turned over and agitated on a three-dimensional agitator during 20 minutes. Then the plates are emptied and the remaining medium is aspired. Then, 100 μl of MTT with 1 mg/ml are added by wells and are left for 3 hours at 37° C. and 5% CO2. The solution is finally withdrawn, then 100 μl of DMSO is added. A reading of the OD is made at 560 nm against 630 nm.
The OD is proportional to the quantity of viable cells, i.e. which adhered to the micro-plates.

decomposition of peptide (HPLC) ([1]; after 24 hours at 25° C., 37° C. and 60° C.): no decomposition
peptide degradation (HPLC) ([1]; after 8 days at 25° C.): no peptide degradation
degradation of the peptide in cell-conditioned culture medium [2]: almost no degradation
peptide concentration in the culture medium [3]: decreases quickly
Substance: GPQGPQ-NH2 [(Gly-Pro-Gln)2-NH2]
cell adhesion (in words) (keratinocytes; 5 ppm, after 3 hours of contact with the keratinocytes, compared with collagen of the type I at 60 ppm): good cell adhesion, similar to that of the collagen of the type I
O.D. (proportional to quantity of viable adhered cells) (keratinocytes; Condition D: wells pre-treated 12 hours with 5 ppm, 3 hours of contact with keratinocytes, OD 560 nm against 630 nm): 0.620
